This note sets out measurements from US20230346791A1, “ATR INHIBITORS FOR THE TREATMENT OF CANCER” (AstraZeneca AB, priority 2020, published 2023).

Where two headings read alike, the source gives them in different places.

The conditions of the data set: for dose-limiting toxicity (DLT): cohort of n=6 evaluable patients.

Protocol: Overall Study Design: The study consisted of two parts, each evaluating the safety and tolerability of AZD6738 when given in combination with paclitaxel. An oral formulation of AZD6738 was used. The first part (Part A) was in combination with paclitaxel; the starting dose of 40 mg AZD6738 OD was escalated to reach a maximum tolerated dose in patients with advanced solid malignancies, as defined by dose-limiting toxicity. […] We made the number and doses of these cohorts flexible so that we could make adjustment as the PK data emerged. […] Dose escalations were conducted in each cohort independently; however, number and doses of the cohorts were to be subject to change as the PK data emerged.
Part A: We conducted a phase I trial for determining maximal tolerate dose (MTD) of AZD6738 when given in combination with fixed dose of paclitaxel in patients with refractory cancer. We used a rolling 6 design in this PART A. Treatment schedule was as follows. Start regimen (every 4 weeks): 40 mg OD dosing of AZD6738, 3 weeks on/ 1 week off; paclitaxel 80 mg/m2 on day 1, 8, 15 This part was in combination with paclitaxel of standard dose; starting dose of 40 mg AZD6738 OD was escalated to reach a maximum tolerated dose in metastatic solid cancer patients. Each cycle was composed of 4 weeks. The decision to dose escalate was to be made upon the assessment of the safety and tolerability data collected up until the time of study drug administration on Cycle 2, Day 1. This DLT assessment period was selected as the major toxicities leading to cessation of dose escalation in such studies (haematological, gastrointestinal, liver enzymes) were anticipated to present within this duration. Doses and/or schedules of AZD6738 were to be defined by the SRC. The cohort size of at least 3 and up to 6 patients (‘rolling six design’) was employed to improve the rate of accrual of patients to cohorts close to the presumed therapeutic dose by reducing the need for late replacement of patients who become non-evaluable during the DLT assessment period, whilst not compromising collection of safety data. […]

For `C[C@@H]1COCCN1c1cc(C2([S@](C)(=N)=O)CC2)nc(-c2cc[nH]c3nccc2-3)n1` [AZD6738, 4-{4-[(3R)-3-methylmorpholin-4-yl]-6-[1-((R)-S-methylsulfonimidoyl)cyclopropyl]pyrimidin-2-yl}-1H-pyrrolo[2,3-b]pyridine], the “dose-limiting toxicity (DLT)” value runs as follows: (AZD6738 160 mg BD days 1-14 with paclitaxel) “One dose-limiting toxicity (DLT) of neutropenic fever”; (AZD6738 240 mg BD days 1-14 with paclitaxel) “One dose-limiting toxicity (DLT) of neutropenic fever”. Besides, the “maximum tolerated dose of AZD6738” value (days 1-14 of 28-day cycle, with paclitaxel 80 mg/m2, per protocol) was 240 mg BID.
